# Patent US11975105B2 (EMPROS PHARMA AB, priority 2014, dated 2024)
# Like-named read-outs stand apart in the source and are kept apart here.
# Key:
# [1] = pH dependent degradation when solubility from a powder was investigated at 37° C.; format: physicochemical; details: FIG. 1A-B
# [2] = cited from earlier work
# [3] = cited from earlier work; for fraction of the dose absorbed: oral administration
# [4] = cited from earlier work; for additional weight loss relative to placebo: at one year
# [5] = cited from earlier work; for frequency of side effects, comparative: human, in vivo
smiles,measurement,setting,value
"CCCCCCCCCCCC(CC1OC(=O)[C@H]1CCCCCC)OC(=O)C(CC(C)C)NC=O (stereo in doubt) [orlistat, (S)—((S)-1-((2S,3S)-3-Hexyl-4-oxooxetan-2-yl)tridecan-2-yl) 2-formamido-4-methylpentanoate]",pH dependent degradation,[1],A similar tendency
same,log P,[2],8.5
same,solubility in water,[2],practically insoluble in water
same,log P,[2]; listed as Orlistat,8.4
same,plasma exposure,[3]; conventional oral dosage form,< 5 ng/mL
same,fraction of the dose absorbed,[3],< 3%
same,additional weight loss relative to placebo,[4],~3%
same,relative weight loss,"[4]; best case scenario, placebo 6%",10%
same,"patients complaining about GI side-effects (diarrhea, oily spottings, fecal urgency)",[5]; clinical trials,≥ 25%
CCCCCCCCCCCCCCCCOc1nc2ccc(C)cc2c(=O)o1 [cetilistat],"frequency of side effects, comparative",[5],much lower frequency of side effects
C[C@H]1CNCCc2ccc(Cl)cc21 [lorcaserin],additional weight loss relative to placebo,[4],~3%
same,decrease of body weight more than placebo,"[4]; human, in vivo",about 3.2 kg
same,"decrease of body weight more than placebo, of initial body weight","[4]; human, in vivo",about 3.2%
OCCN1C[C@H](O)[C@@H](O)[C@H](O)[C@H]1CO [miglitol],fraction of the dose absorbed,[3],100%
OCC(CO)N[C@H]1C[C@](O)(CO)[C@@H](O)[C@H](O)[C@H]1O [voglibose],fraction of the dose absorbed,[3],negligibly absorbed
same,"frequency of side effects, comparative",[5],lower frequency of GI side effects compared to acarbose
